# US20160223562A1, “Method for Determining the Concentration of a Peptide” (JPT Peptide Technologies GmbH, priority 2010, published 2016)
# Square brackets hold non-standard residues; d marks the D form. Peptide text beside a SMILES is read from it. Tyr(3-NO2) = N[C@@H](Cc1ccc(O)c([N+](=O)[O-])c1)C(=O)O
# Tests used:
# [1] = molecular target: T1, Trypsin (Sus scrofa, UniProt P00761); assay: Trypsin cleavage of C-terminal quantification tag -SA-nitroTyr-G from peptides, LC-MS with UV detection at 350 nm; type: biochemical; conditions: for Percent Cleavage of Tag [by UV at 350 nm]: after reduction and alkylation, trypsin enzyme/substrate 1:50 over night at RT
# T1 construct: purchased Promega Corporation V511
# T1 sequence (P00761 9-231): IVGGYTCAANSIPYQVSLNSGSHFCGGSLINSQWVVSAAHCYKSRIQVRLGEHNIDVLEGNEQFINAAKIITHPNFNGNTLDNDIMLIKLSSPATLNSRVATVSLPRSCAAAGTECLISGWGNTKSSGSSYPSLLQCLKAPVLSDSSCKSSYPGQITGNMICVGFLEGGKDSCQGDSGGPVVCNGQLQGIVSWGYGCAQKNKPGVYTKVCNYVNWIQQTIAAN
# Procedure: 23 peptides carrying the C-terminal quantification-tag-SA-nitroTyr-G-OH (SEQ ID NO:2) were synthesized by Fmoc-based solid phase peptide synthesis and purified by HPLC. Each peptide was subjected to the following trypsin cleavage protocol:
# (§1) Trypsin Activation: Trypsin (20 μg, sequencing grade modified trypsin, Promega Corporation, Madison, Wis., USA, catalogue no. V511, specific activity 16.965 u/mg) was dissolved in Trypsin resuspension buffer (200 μL, Promega, catalogue no. V542A, ingredient 50 mM acetic acid) and incubated for 15 min at 37° C.
# (§2) Reduction and alkylation: The peptide (approx. 0.05 mg) was dissolved in 1 M urea and 100 mM fresh ammonium hydrogen carbonate (300 μL). TCEP (Tris(2-carboxyethyl) phosphine hydrochloride, 0.2 M, 7.5 μL, final concentration 5 mM) was added and the solution incubated at 37° C. for 1 h. After addition of iodoacetamide (0.5 M, 6.0 μL, final concentration 10 mM) the solution was incubated at RT in the dark for another 30 min. Digestion: The sample was digested with activated Trypsin solution (10 μL per well, 1.0 μg, resulting enzyme/substrate ratio 1:50) over night at RT. To stop the digestion, HCl (2 M, 8 μL final concentration 50 mM) and TFA (3.2 μL, final concentration 1%, pH<2) were added. Finally, the sample was analyzed by LC-MS at 350 nm.
# [2] = molecular target: T1, Trypsin; assay: Trypsin cleavage of N-terminal quantification tag Ac-nitroTyr-SGK- from peptides, LC-MS with UV detection at 350 nm; type: biochemical; conditions: for Kusebauch 24 h, RT: Percent Cleavage of Tag [by UV350 - Peptide-Tag vs. Tag]: trypsin protocol of example 9, 24 h
# Procedure: as §1, §2
# 38 peptides carrying the N-terminal quantification-tag Ac-nitroTyr-SGK-(SEQ ID NO:32) were synthesized by SPOT synthesis (Table 3). The peptide sequences are based on two different amino acid sequences, which in each case contain 19 different amino acids N-terminally attached to lysine (the 20 naturally occurring amino acids except cysteine).
# All peptides were subjected to the same trypsin cleavage protocol as described in example 9. It is apparent that the quantification tag is efficiently cleaved (>99%) in nearly all cases.
Compound,Percent Cleavage of Tag [by UV at 350 nm] [1],"Kusebauch 24 h, RT: Percent Cleavage of Tag [by UV350 - Peptide-Tag vs. Tag] [2]",cleavage efficiency (LC-MS and UV detection at 350 nm) ([1]; trypsin over night at RT),cleavage efficiency in words ([2]; trypsin)
"CC[C@H](C)[C@H](NC(=O)[C@H](Cc1ccccc1)NC(=O)[C@H](Cc1ccc(O)cc1)NC(=O)[C@H](Cc1c[nH]cn1)NC(=O)[C@@H](NC(=O)[C@H](CC(N)=O)NC(=O)[C@H](CCCCN)NC(=O)CNC(=O)[C@H](CO)NC(=O)[C@H](Cc1ccc(O)c([N+](=O)[O-])c1)NC(C)=O)[C@@H](C)O)C(=O)N[C@@H](CC(=O)O)C(=O)N[C@@H](CC(C)C)C(=O)N[C@@H](CC(N)=O)C(=O)N[C@@H](CCCCN)C(=O)O [Peptide 12, Ac-nitroTyr-SGKNTHYFIDLN-K-OH] (Ac-[Tyr(3-NO2)]SGKNTHYFIDLNK-OH)",100%,100.0%,–,–
"CC[C@H](C)[C@H](NC(=O)[C@H](Cc1ccccc1)NC(=O)[C@H](Cc1ccc(O)cc1)NC(=O)[C@H](Cc1c[nH]cn1)NC(=O)[C@@H](NC(=O)[C@H](CC(C)C)NC(=O)[C@H](CCCCN)NC(=O)CNC(=O)[C@H](CO)NC(=O)[C@H](Cc1ccc(O)c([N+](=O)[O-])c1)NC(C)=O)[C@@H](C)O)C(=O)N[C@@H](CC(=O)O)C(=O)N[C@@H](CC(C)C)C(=O)N[C@@H](CC(N)=O)C(=O)N[C@@H](CCCCN)C(=O)O [Peptide 10, Ac-nitroTyr-SGKLTHYFIDLN-K-OH] (Ac-[Tyr(3-NO2)]SGKLTHYFIDLNK-OH)",100%,100.0%,–,–
"CC[C@H](C)[C@H](NC(=O)[C@H](Cc1ccccc1)NC(=O)[C@H](Cc1ccc(O)cc1)NC(=O)[C@H](Cc1c[nH]cn1)NC(=O)[C@@H](NC(=O)CNC(=O)[C@H](CCCCN)NC(=O)CNC(=O)[C@H](CO)NC(=O)[C@H](Cc1ccc(O)c([N+](=O)[O-])c1)NC(C)=O)[C@@H](C)O)C(=O)N[C@@H](CC(=O)O)C(=O)N[C@@H](CC(C)C)C(=O)N[C@@H](CC(N)=O)C(=O)N[C@@H](CCCCN)C(=O)O [Peptide 6, Ac-nitroTyr-SGKGTHYFIDLN-K-OH] (Ac-[Tyr(3-NO2)]SGKGTHYFIDLNK-OH)",100%,100.0%,–,–
"CC[C@H](C)[C@H](NC(=O)[C@H](Cc1ccccc1)NC(=O)[C@H](Cc1ccc(O)cc1)NC(=O)[C@H](Cc1c[nH]cn1)NC(=O)[C@@H](NC(=O)[C@@H](NC(=O)[C@H](CCCCN)NC(=O)CNC(=O)[C@H](CO)NC(=O)[C@H](Cc1ccc(O)c([N+](=O)[O-])c1)NC(C)=O)[C@@H](C)O)[C@@H](C)O)C(=O)N[C@@H](CC(=O)O)C(=O)N[C@@H](CC(C)C)C(=O)N[C@@H](CC(N)=O)C(=O)N[C@@H](CCCCN)C(=O)O [Peptide 17, Ac-nitroTyr-SGKTTHYFIDLN-K-OH] (Ac-[Tyr(3-NO2)]SGKTTHYFIDLNK-OH)",100%,100.0%,–,–
"CC[C@H](C)[C@H](NC(=O)[C@H](Cc1ccccc1)NC(=O)[C@H](Cc1ccc(O)cc1)NC(=O)[C@H](Cc1c[nH]cn1)NC(=O)[C@@H](NC(=O)[C@H](Cc1ccc(O)cc1)NC(=O)[C@H](CCCCN)NC(=O)CNC(=O)[C@H](CO)NC(=O)[C@H](Cc1ccc(O)c([N+](=O)[O-])c1)NC(C)=O)[C@@H](C)O)C(=O)N[C@@H](CC(=O)O)C(=O)N[C@@H](CC(C)C)C(=O)N[C@@H](CC(N)=O)C(=O)N[C@@H](CCCCN)C(=O)O [Peptide 20, Ac-nitroTyr-SGKYTHYFIDLN-K-OH] (Ac-[Tyr(3-NO2)]SGKYTHYFIDLNK-OH)",74.7%,100.0%,75%,–
CC(C)C[C@H](N)C(=O)N1CCC[C@H]1C(=O)N[C@@H](CC(N)=O)C(=O)NCC(=O)N[C@H](C(=O)N[C@@H](Cc1ccccc1)C(=O)N[C@H](C(=O)N1CCC[C@H]1C(=O)N[C@@H](CC(=O)O)C(=O)N[C@@H](Cc1ccccc1)C(=O)N[C@@H](CCC(N)=O)C(=O)N[C@@H](CCC(=O)O)C(=O)N[C@@H](Cc1ccccc1)C(=O)N[C@H](C(=O)N[C@@H](CC(N)=O)C(=O)N[C@@H](CCCCN)C(=O)N[C@@H](CO)C(=O)N[C@@H](C)C(=O)N[C@@H](Cc1ccc(O)c([N+](=O)[O-])c1)C(=O)NCC(=O)O)C(C)C)[C@@H](C)O)C(C)C [LPNGVFTPDFQEFVN-K-SA-nitroTyr-G] (H-LPNGVFTPDFQEFVNKSA[Tyr(3-NO2)]G-OH),95.4%,–,–,–
CC[C@H](C)[C@H](NC(=O)[C@H](CC(C)C)NC(=O)[C@@H](N)CCC(=O)O)C(=O)N[C@@H](Cc1ccccc1)C(=O)N[C@@H](CCC(N)=O)C(=O)N[C@@H](CCC(=O)O)C(=O)N[C@H](C(=O)N[C@@H](C)C(=O)N[C@@H](CCCNC(=N)N)C(=O)N[C@@H](CO)C(=O)N[C@@H](C)C(=O)N[C@@H](Cc1ccc(O)c([N+](=O)[O-])c1)C(=O)NCC(=O)O)[C@@H](C)O [Peptide 22] (H-ELIFQETARSA[Tyr(3-NO2)]G-OH),100%,–,–,–
"CC[C@H](C)[C@H](NC(=O)[C@H](Cc1ccccc1)NC(=O)[C@H](Cc1ccc(O)cc1)NC(=O)[C@H](Cc1c[nH]cn1)NC(=O)[C@@H](NC(=O)[C@H](CCCCN)NC(=O)[C@H](CCCCN)NC(=O)CNC(=O)[C@H](CO)NC(=O)[C@H](Cc1ccc(O)c([N+](=O)[O-])c1)NC(C)=O)[C@@H](C)O)C(=O)N[C@@H](CC(=O)O)C(=O)N[C@@H](CC(C)C)C(=O)N[C@@H](CC(N)=O)C(=O)N[C@@H](CCCCN)C(=O)O [Peptide 9, Ac-nitroTyr-SGKKTHYFIDLN-K-OH] (Ac-[Tyr(3-NO2)]SGKKTHYFIDLNK-OH)",99.2%,100.0%,–,good cleavage efficiencies
Ac-nitroTyr-SGKATHYFIDLN-K-OH (Ac-[Tyr(3-NO2)]SGKATHYFIDLNK-OH; SMILES CC[C@H](C)[C@H](NC(=O)[C@H](Cc1ccccc1)NC(=O)[C@H](Cc1ccc(O)cc1)NC(=O)[C@H](Cc1c[nH]cn1)NC(=O)[C@@H](NC(=O)[C@H](C)NC(=O)[C@H](CCCCN)NC(=O)CNC(=O)[C@H](CO)NC(=O)[C@H](Cc1ccc(O)c([N+](=O)[O-])c1)NC(C)=O)[C@@H](C)O)C(=O)N[C@@H](CC(=O)O)C(=O)N[C@@H](CC(C)C)C(=O)N[C@@H](CC(N)=O)C(=O)N[C@@H](CCCCN)C(=O)O) [Peptide 1],100%,100.0%,–,–
"CC(=O)N[C@@H](Cc1ccc(O)c([N+](=O)[O-])c1)C(=O)N[C@@H](CO)C(=O)NCC(=O)N[C@@H](CCCCN)C(=O)N[C@@H](CCC(N)=O)C(=O)N[C@H](C(=O)N[C@@H](C)C(=O)N[C@@H](CC(C)C)C(=O)N[C@@H](CO)C(=O)N[C@@H](CC(C)C)C(=O)N[C@@H](CC(=O)O)C(=O)N[C@@H](CC(=O)O)C(=O)N[C@H](C(=O)N[C@@H](CCCCN)C(=O)O)C(C)C)C(C)C [Peptide 34, Ac-nitroTyr-SGKQVALSLDDV-K-OH] (Ac-[Tyr(3-NO2)]SGKQVALSLDDVK-OH)",–,100.0%,–,–
CC[C@H](C)[C@H](NC(=O)[C@@H](NC(=O)[C@@H](N)CO)C(C)C)C(=O)N[C@@H](CC(=O)O)C(=O)N1CCC[C@H]1C(=O)N[C@H](C(=O)N1CCC[C@H]1C(=O)N[C@@H](C)C(=O)N1CCC[C@H]1C(=O)N[C@H](C(=O)NCC(=O)N[C@@H](CC(=O)O)C(=O)N[C@@H](CO)C(=O)N[C@@H](Cc1c[nH]cn1)C(=O)N[C@H](C(=O)N[C@@H](CC(=O)O)C(=O)NCC(=O)N[C@@H](C)C(=O)N[C@@H](C)C(=O)N[C@@H](CCCCN)C(=O)N[C@@H](CO)C(=O)N[C@@H](C)C(=O)N[C@@H](Cc1ccc(O)c([N+](=O)[O-])c1)C(=O)NCC(=O)O)C(C)C)C(C)C)C(C)C [Peptide 2] (H-SVIDPVPAPVGDSHVDGAAKSA[Tyr(3-NO2)]G-OH),100%,–,–,–
"CC(=O)N[C@@H](Cc1ccc(O)c([N+](=O)[O-])c1)C(=O)N[C@@H](CO)C(=O)NCC(=O)N[C@@H](CCCCN)C(=O)N[C@@H](CCCCN)C(=O)N[C@H](C(=O)N[C@@H](C)C(=O)N[C@@H](CC(C)C)C(=O)N[C@@H](CO)C(=O)N[C@@H](CC(C)C)C(=O)N[C@@H](CC(=O)O)C(=O)N[C@@H](CC(=O)O)C(=O)N[C@H](C(=O)N[C@@H](CCCCN)C(=O)O)C(C)C)C(C)C [Peptide 29, Ac-nitroTyr-SGKKVALSLDDV-K-OH] (Ac-[Tyr(3-NO2)]SGKKVALSLDDVK-OH)",–,100.0%,–,–
